“And” between values parts separate entries of the source, which are not always exact repeats. Equal values may be shown once. Read-outs that look alike come from different tables or passages of the source.
Experiments:
[1] = in vivo; assay type: in vivo, Beagle dogs
Description: (§1) Adult Beagle dogs weighing approximately 10 to 15 kg were used in the study. The animals were housed at Sinclair Research Center, Columbia, Mo. either individually or in pairs in over-sized dog runs. […] A 12-hour light/12-hour dark photoperiod was maintained. Room temperature was set to be maintained at 20±5° C. Relative humidity was monitored but not controlled. Animal room and pen cleaning were performed according to the testing facility (Sinclair) SOPs.
(§2) Animals were fasted overnight prior to drug administration and throughout the blood collection period.
(§3) Adult female Beagle dogs, weighing 9-15 kg were used in the oral and IV studies. Dogs were fasted overnight before the beginning of each study but were allowed free access to water. On the day of the study, one pre-dose blood sample of 3 mL was collected from each animal.
(§4) After administration of the drug, 3 mL blood samples were collected from the brachial vein at various time-points up to 240 minutes (4 hours) post-administration. Blood samples were collected into new heparinized monovette sampling syringes. The samples were placed on ice before being centrifuged for 10 minutes at approximately 2750 rpm at 2-8° C. Each tube was labeled with the dog ID # and time-point, and they were stored at −20° C. pending shipment.
Plasma samples were diluted appropriately with the kit assay buffer.
The maximum plasma concentration (Cmax) values and their times of occurrence (Tmax) were obtained directly from the plasma concentration vs. time profiles. The areas under the plasma concentration-time curves (AUClast) were estimated by the linear trapezoidal rule from time zero to the time of the last observed plasma concentration.

[2] = in vivo; details: female, beagle, dog, po
Description: as §1, §2, §3, §4
Plasma samples were diluted appropriately with the kit assay buffer. […]

[3] = female, beagle, dog, in vivo, iv, 0.1 mg

## NC[C@H]1O[C@H](O[C@H]2[C@H](O)[C@@H](O[C@H]3O[C@H](CO)[C@@H](O)[C@H](N)[C@H]3O)[C@H](N)C[C@@H]2N)[C@H](N)C[C@@H]1O [Tobramycin]
[1]; female, Beagle, dog, in vivo, iv, 0.1 mg, AUC, Mean
  AUC: 29.7 ng·h/mL
[1]; female, Beagle, dog, in vivo, iv, 0.1 mg, Cmax, individual dogs
  Cmax: 38.4 ng/mL
[1]; female, Beagle, dog, in vivo, iv, 0.1 mg, individual dogs
  Tmax: 5 min
[1]; [3]
  Cmax, Mean: 31.22 ng/mL
  Tmax, individual dogs: 5 min
[1]; female, beagle, dog, in vivo, iv, 0.1 mg, Cmax, Mean
  Cmax: 31 ng/mL
[1]; female, beagle, dog, in vivo, iv, 0.1 mg, Mean
  Tmax: 5 min
[2]
  bioavailability: 15%

## NC[C@H]1O[C@H](O[C@H]2[C@H](O)[C@@H](O[C@H]3O[C@H](CO)[C@@H](O)[C@H](N)[C@H]3O)[C@H](N)C[C@@H]2N)[C@H](O)[C@@H](O)[C@@H]1O [Kanamycin]
[1]; female, Beagle, dog, plasma, iv, 0.1 mg, single IV bolus 0.10 mg, 0 min, read-out: Plasma Concentration, Mean
  concentration at 0 min: 0 ng/mL
[1]; female, Beagle, dog, plasma, iv, 0.1 mg, single IV bolus 0.10 mg, 0 min, read-out: Plasma Concentration, individual dogs
  concentration at 0 min: 0 ng/mL
[1]; female, Beagle, dog, plasma, iv, 0.1 mg, single IV bolus 0.10 mg, 5 min
  concentration at 5 min: 40.8 ng/mL
[1]; female, Beagle, dog, plasma, iv, 0.1 mg, single IV bolus 0.10 mg, 10 min
  concentration at 10 min: 38.6 ng/mL
[1]; female, Beagle, dog, plasma, iv, 0.1 mg, single IV bolus 0.10 mg, 15 min
  concentration at 15 min: 40.3 ng/mL
[1]; female, Beagle, dog, plasma, iv, 0.1 mg, single IV bolus 0.10 mg, 20 min
  concentration at 20 min: 32.1 ng/mL
[1]; female, Beagle, dog, plasma, iv, 0.1 mg, single IV bolus 0.10 mg, 30 min
  concentration at 30 min: 34.6 ng/mL
[1]; female, Beagle, dog, plasma, iv, 0.1 mg, single IV bolus 0.10 mg, 40 min, read-out: Plasma Concentration, Mean
  concentration at 40 min: 27.2 ng/mL
[1]; female, Beagle, dog, plasma, iv, 0.1 mg, single IV bolus 0.10 mg, 40 min, read-out: Plasma Concentration, individual dogs
  concentration at 40 min: 29.9 ng/mL
[1]; female, Beagle, dog, plasma, iv, 0.1 mg, single IV bolus 0.10 mg, 60 min, read-out: Plasma Concentration, Mean
  concentration at 60 min: 25.6 ng/mL
[1]; female, Beagle, dog, plasma, iv, 0.1 mg, single IV bolus 0.10 mg, 60 min, read-out: Plasma Concentration, individual dogs
  concentration at 60 min: 31 ng/mL
[1]; female, Beagle, dog, plasma, iv, 0.1 mg, single IV bolus 0.10 mg, 90 min
  concentration at 90 min: 9.24 ng/mL
[1]; female, Beagle, dog, plasma, iv, 0.1 mg, single IV bolus 0.10 mg, 120 min
  concentration at 120 min: 10 ng/mL
[1]; female, Beagle, dog, plasma, iv, 0.1 mg, single IV bolus 0.10 mg, 240 min
  concentration at 240 min: 1.61 ng/mL
[1]; female, Beagle, dog, plasma, iv, 0.1 mg, single IV bolus 0.10 mg, read-out: AUC, Mean (converted)
  AUC: 54.2 ng·h/mL
[1]; female, Beagle, dog, plasma, iv, 0.1 mg, single IV bolus 0.10 mg, read-out: AUC, individual dogs (converted)
  AUC: 46.5 ng·h/mL
[1]; female, Beagle, dog, plasma, iv, 0.1 mg, single IV bolus 0.10 mg, read-out: Cmax, Mean
  Cmax: 50 ng/mL
[1]; single IV bolus 0.10 mg
  AUC, individual dogs: 3806 ng·min/mL and 3169 ng·min/mL
  Cmax, Mean: 50.21 ng/mL
  Cmax, individual dogs: 77.73 ng/mL and 54.88 ng/mL and 18.01 ng/mL
  Tmax, individual dogs: 15 min and 60 min
[1]; single IV bolus 0.10 mg, 0 min
  Plasma Concentration, individual dogs: 0 ng/mL
[1]; single IV bolus 0.10 mg, 5 min
  Plasma Concentration, individual dogs: 77.73 ng/mL and 40.56 ng/mL and 3.97 ng/mL
[1]; single IV bolus 0.10 mg, 10 min
  Plasma Concentration, individual dogs: 37.75 ng/mL and 7.52 ng/mL
[1]; single IV bolus 0.10 mg, 15 min
  Plasma Concentration, individual dogs: 9.70 ng/mL
[1]; single IV bolus 0.10 mg, 20 min
  Plasma Concentration, individual dogs: 39.87 ng/mL and 14.59 ng/mL
[1]; single IV bolus 0.10 mg, 30 min
  Plasma Concentration, individual dogs: 43.81 ng/mL and 42.52 ng/mL and 17.48 ng/mL
[1]; single IV bolus 0.10 mg, 40 min
  Plasma Concentration, individual dogs: 34.08 ng/mL and 17.58 ng/mL
[1]; single IV bolus 0.10 mg, 60 min
  Plasma Concentration, individual dogs: 27.79 ng/mL and 18.01 ng/mL
[1]; single IV bolus 0.10 mg, 90 min
  Plasma Concentration, individual dogs: 0 ng/mL and 9.81 ng/mL and 17.91 ng/mL
[1]; single IV bolus 0.10 mg, 120 min
  Plasma Concentration, individual dogs: 0 ng/mL and 13.36 ng/mL and 16.63 ng/mL
[1]; single IV bolus 0.10 mg, 240 min
  Plasma Concentration, individual dogs: 0 ng/mL (2×) and 4.84 ng/mL

From US9526785B2, “Pharmaceuticals for oral delivery” (Enteris BioPharma, Inc., priority 2013, dated 2016)
